Data on six compounds can be found in patent publication US20240299269A1, “HYDROXY ACIDS FOR SCALP AND HAIR IN PERSONAL CARE COMPOSITIONS” (The Procter & Gamble Company, priority 2023, published 2024).

The conditions of series [1]: octanol/water; cited from earlier work.
The conditions of series [2]: calcium binding constant; cited from earlier work.
Series [3] in a line: In vitro calcium chelation screening of weak acids (octanol/water, ICP-OES). The note with it: for % Calcium in Water Phase: 3% hydroxy acid in water, pH approximately 3, 1000 ppm CaCO3 in octanol, vortexed 2 minutes, 2 hours. Format: physicochemical. Here is the method:
A high throughput in-vitro screening method is developed to help identify lead acids that could function as calcium chelators. The intent of the method is to mimic the lipid matrix of the scalp and to quantify the amount of calcium that could be extracted from that matrix. […] Equal parts of the lipid and water phases are added to a conical vial and vortexed for 2 minutes. The vials are left to sit for 2 hours and then the lower water phase is extracted from the concial vial and submitted for Calcium analysis via ICP-OES. […] [formula]

By LogP is commonly meant the decadic logarithm of the partition coefficient of the neutral form, usually between octanol and water. In the case of `O=C(O)C(O)C(O)C(=O)O` (stereo not drawn) [Tartaric Acid], in series [1], the LogP is reported as −0.760.

On to `O=C(O)CO` [Glycolic Acid], for which the logK_1 in series [2] is given as 1.590. For the same compound, in series [1], the LogP was −1.050.

On to `O=C(O)CC(O)(CC(=O)O)C(=O)O` [Citric Acid], for which, in series [2], the logK_1 is listed as 1.100 and the logK_3 is 4.680.

As for `CC(O)C(=O)O` (stereo not drawn) [Lactic Acid], the logK_1 in series [2] is reported as 1.450. The “% Calcium in Water Phase” value in series [3] turned out to be 78%.

On to `O=C(O)[C@H](O)[C@@H](O)[C@H](O)[C@H](O)CO` [Gluconic Acid], for which, in series [2], the logK_1 was 1.880. Moreover, the LogP in series [1] is −1.870.

For `O=C(O)c1ccccc1O` [Salicylic Acid], in series [2], the logK_1 is recorded as 1.100. Besides, in series [3], the “% Calcium in Water Phase” value was 29%. For the same compound, the calcium chelation ability entry in series [3] (among hydroxy acids screened) is on record as “lower calcium chelation ability”.
